Laboratory results taken from patent publication US9181259B2 (LEO PHARMA A/S, priority 2012, dated 2015).
Where a name gives a salt, the structure may show the parent alone.

biological target: T1, NK1 receptor (Homo sapiens, UniProt P25103); experiment: NK1 receptor mediated intracellular [Ca2+] mobilization in U251 MG cells using FLIPR; format: cell-based; conditions: antagonist potency against Substance P (EC80), normalized to 100 nM Aprepitant, read-out: U251MG (FLIPR pIC50) (converted)
T1 construct: Measurement of NK1 Receptor Mediated Intracellular [Ca^2+]; Mobilization in U251 MG Cells Using FLIPR; endogenous in cells; host or cells: U251 MG cells
Procedure: Measurement of NK1 Receptor Mediated Intracellular [Ca^2+] Mobilization in U251 MG Cells Using FLIPR
U251 MG cells were seeded into black walled clear-bottom 384-well plates (Greiner Bio-One GmbH, Frickenhausen, Germany) at a density of 15,000 cells/well in 50 μl culture medium and cultured overnight in a 37° C. 5% CO2 incubator. The cells were then loaded with the calcium sensitive dye Fluo-4 (Invitrogen) at 1 μM in buffer, containing 0.04%
Pluronic F-127 (Sigma-Aldrich), and 2.5 mM probenecid (Sigma-Aldrich) for 60 min in a humidified atmosphere of 5% CO2. Thereafter, cells were washed three times in washing buffer containing 20 mM HEPES and 2.5 mM probenecid pH 7.3. Serial dilutions of test compounds in assay buffer containing 2% dimethyl sulfoxide (final concentration in the cell plate is 0.5% DMSO) and/or agonist were then automatically pipetted into each test well, and the peak fluorescence intensity was recorded (lex, 488 nm; lem, 540 nm) by the FLIPR instrument (Molecular Devices) for approximately 5 min. To measure antagonist potency, cell plates were first incubated with the test compound and intracellular fluorescence recorded for 5 minutes to check a potential agonist effect of the test compound. Cell plates were quickly removed from the FLIPR instrument and incubated for additional 10 minutes at 37° C. before being moved back to the FLIPR instrument for Substance P (EC80) addition. The response was measured as the peak relative fluorescence change after agonist addition.
The IC50 value is defined as the molar concentration of a test compound that produces a response midway between the fitted top and the fitted bottom. pIC50=−log IC50
Formula is listed as follows: Fit(% Effect calculated)=(A+((B−A)/(1+((C/X)^D)))) • A: bottom value • B: top value • C: […] • D: Hill slope coefficient
Ref: Sullivan E, Tucker E M, and Dale I L. Measurement of [Ca^2+] using the Fluorometric Imaging Plate Reader (FLIPR). Methods Mol Biol 114:125-133, 1999.
Compounds of the present invention were tested according to example 120.

T1 sequence (P25103 whole entry): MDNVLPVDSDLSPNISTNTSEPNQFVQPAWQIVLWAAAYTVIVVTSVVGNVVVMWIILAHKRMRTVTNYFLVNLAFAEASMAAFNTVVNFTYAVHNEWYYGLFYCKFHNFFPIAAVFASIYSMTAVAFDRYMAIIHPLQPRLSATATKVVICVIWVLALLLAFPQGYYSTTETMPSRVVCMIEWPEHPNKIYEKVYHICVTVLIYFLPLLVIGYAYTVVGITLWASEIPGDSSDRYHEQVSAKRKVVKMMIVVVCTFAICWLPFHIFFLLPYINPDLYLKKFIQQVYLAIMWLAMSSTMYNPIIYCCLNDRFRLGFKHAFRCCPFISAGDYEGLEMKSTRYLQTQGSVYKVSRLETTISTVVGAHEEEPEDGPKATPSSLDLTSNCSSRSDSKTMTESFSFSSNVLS

Row | Compound | IC50 [nM]
1 | Cc1ccccc1C1C2CC(CO)CN2CCN1C(=O)N(C)Cc1cc(C(F)(F)F)cc(C(F)(F)F)c1 (single isomer, unassigned) [Compound 27, N-{[3,5-bis(trifluoromethyl)phenyl]methyl}-7-(hydroxymethyl)-N-methyl-1-(2-methylphenyl)-octahydropyrrolo[1,2-a]piperazine-2-carboxamide; methanesulfonic acid salt] | 58.9
2 | Cc1ccccc1C1C2CC(C)(C(=O)N(C)C)C(=O)N2CCN1C(=O)N(C)Cc1cc(C(F)(F)F)cc(C(F)(F)F)c1 (single isomer, unassigned) [Compound 25, 2-N-{[3,5-bis(trifluoromethyl)phenyl]methyl}-2-N,7-N,7-N,7-tetramethyl-1-(2-methylphenyl)-6-oxo-octahydropyrrolo[1,2-a]piperazine-2,7-dicarboxamide] | 22.9
3 | Cc1ccccc1C1C2CCC(=O)N2CCN1C(=O)N(C)Cc1cc(F)cc(C(F)(F)F)c1 (single isomer, unassigned) [Compound 4, N-{[3-fluoro-5-(trifluoromethyl)phenyl]methyl}-N-methyl-1-(2-methylphenyl)-6-oxo-octahydropyrrolo[1,2-a]piperazine-2-carboxamide] | 81.3
4 | Cc1ccccc1C1C2CCCN2CCN1C(=O)N(C)Cc1cc(C(F)(F)F)cc(C(F)(F)F)c1 (racemic) [Compound 24, N-{[3,5-bis(trifluoromethyl)phenyl]methyl}-N-methyl-1-(2-methylphenyl)-octahydropyrrolo[1,2-a]piperazine-2-carboxamide] | 1.35
5 | Cc1ccccc1C1C2CC(CCO)C(=O)N2CCN1C(=O)N(C)C(CCO)c1cc(C(F)(F)F)cc(C(F)(F)F)c1 (single isomer, unassigned) [Compound 34, N-{1-[3,5-bis(trifluoromethyl)phenyl]-3-hydroxypropyl}-7-(2-hydroxyethyl)-N-methyl-1-(2-methylphenyl)-6-oxo-octahydropyrrolo[1,2-a]piperazine-2-carboxamide] | 15.5
6 | Cc1ccccc1[C@H]1[C@@H]2CC(CCO)(CCO)C(=O)N2CCN1C(=O)N(C)[C@@H](CO)c1cc(C(F)(F)F)cc(C(F)(F)F)c1 [Compound 87, (1S,8aS)-N-((R)-1-(3,5-bis(trifluoromethyl)phenyl)-2-hydroxyethyl)-7,7-bis(2-hydroxyethyl)-N-methyl-6-oxo-1-o-tolylhexahydropyrrolo[1,2-a]pyrazine-2(1H)-carboxamide] | 0.204
7 | Cc1ccccc1C1C2CC(CN3CCOCC3)C(=O)N2CCN1C(=O)N(C)Cc1cc(C(F)(F)F)cc(C(F)(F)F)c1 (single isomer, unassigned) [Compound 39] | 2.88
8 | Cc1ccccc1C1C2CCCN2CCN1C(=O)N(C)Cc1cc(C(F)(F)F)cc(C(F)(F)F)c1 (single isomer, unassigned) [Compound 61, N-{[3,5-bis(trifluoromethyl)phenyl]methyl}-N-methyl-1-(2-methylphenyl)-octahydropyrrolo[1,2-a]piperazine-2-carboxamide] | > 100
9 | Cc1ccccc1C1C2CC(CO)C(=O)N2CCN1C(=O)N(C)Cc1cc(C(F)(F)F)cc(C(F)(F)F)c1 (single isomer, unassigned) [Compound 21, N-{[3,5-bis(trifluoromethyl)phenyl]methyl}-7-(hydroxymethyl)-N-methyl-1-(2-methylphenyl)-6-oxo-octahydropyrrolo[1,2-a]piperazine-2-carboxamide] | 0.0407
10 | C=C1CC2C(c3ccccc3C)N(C(=O)N(C)Cc3cc(C(F)(F)F)cc(C(F)(F)F)c3)CCN2C1=O (single isomer, unassigned) [Compound 32, N-{[3,5-bis(trifluoromethyl)phenyl]methyl}-N-methyl-7-methylidene-1-(2-methylphenyl)-6-oxo-octahydropyrrolo[1,2-a]piperazine-2-carboxamide] | 0.437
11 | Cc1ccccc1C1C2CC(CN3CCOCC3)C(=O)N2CCN1C(=O)N(C)Cc1cc(C(F)(F)F)cc(C(F)(F)F)c1 (single isomer, unassigned) [Compound 51] | 0.12
12 | Cc1ccccc1C1C2CCC(=O)N2CCCN1C(=O)N(C)Cc1cc(C(F)(F)F)cc(C(F)(F)F)c1 (mixture of isomers) [Compound 7, N-{[3,5-bis(trifluoromethyl)phenyl]methyl}-N-methyl-1-(2-methylphenyl)-7-oxo-octahydro-1H-pyrrolo[1,2-a][1,4]diazepine-2-carboxamide] | 1.07
13 | COC(=O)C1(C)CC2C(c3ccccc3C)N(C(=O)N(C)Cc3cc(C(F)(F)F)cc(C(F)(F)F)c3)CCN2C1=O (single isomer, unassigned) [Compound 14, Methyl 2-({[3,5-bis(trifluoromethyl)phenyl]methyl}(methyl)carbamoyl)-7-methyl-1-(2-methylphenyl)-6-oxo-octahydropyrrolo{1,2-a}piperazine-7-carboxylate] | 0.0692
14 | Cc1ccccc1C1C2CCC(=O)N2CCN1C(=O)N(C)Cc1cc(C(F)(F)F)cc(C(F)(F)F)c1 (racemic) [Compound 16, N-{[3,5-bis(trifluoromethyl)phenyl]methyl}-N-methyl-1-(2-methylphenyl)-6-oxo-octahydropyrrolo[1,2-a]piperazine-2-carboxamide] | 0.229
15 | CC(=O)N1CCN(CC2CC3C(c4ccccc4C)N(C(=O)N(C)Cc4cc(C(F)(F)F)cc(C(F)(F)F)c4)CCN3C2=O)CC1 (centres unmarked) [Compound 37, 7-[(4-acetylpiperazin-1-yl)methyl]-N-{[3,5-bis(trifluoromethyl)phenyl]methyl}-N-methyl-1-(2-methylphenyl)-6-oxo-octahydropyrrolo[1,2-a]piperazine-2-carboxamide] | 0.309
16 | Cc1ccccc1C1C2CC(CO)CN2CCN1C(=O)N(C)Cc1cc(C(F)(F)F)cc(C(F)(F)F)c1 (single isomer, unassigned) [Compound 28, N-{[3,5-bis(trifluoromethyl)phenyl]methyl}-7-(hydroxymethyl)-N-methyl-1-(2-methylphenyl)-octahydropyrrolo[1,2-a]piperazine-2-carboxamide; methanesulfonic acid salt] | 0.912
17 | Cc1ccccc1C1C2CC(CCO)CN2CCN1C(=O)N(C)C(CCO)c1cc(C(F)(F)F)cc(C(F)(F)F)c1 (centres unmarked) [Compound 36, N-{1-[3,5-bis(trifluoromethyl)phenyl]-3-hydroxypropyl}-7-(2-hydroxyethyl)-N-methyl-1-(2-methylphenyl)-octahydropyrrolo[1,2-a]piperazine-2-carboxamide] | 0.724
18 | Cc1ccccc1C1C2CCC(=O)N2CCN1C(=O)N(C)Cc1cccc(C(F)(F)F)c1 (single isomer, unassigned) [Compound 5, N-methyl-1-(2-methylphenyl)-6-oxo-N-{[3-(trifluoromethyl)phenyl]methyl}-octahydropyrrolo[1,2-a]piperazine-2-carboxamide] | 7.41
19 | Cc1ccccc1C1C2CC(CO)C(=O)N2CCN1C(=O)N(C)Cc1cc(C(F)(F)F)cc(C(F)(F)F)c1 (single isomer, unassigned) [Compound 20, N-{[3,5-bis(trifluoromethyl)phenyl]methyl}-7-(hydroxymethyl)-N-methyl-1-(2-methylphenyl)-6-oxo-octahydropyrrolo[1,2-a]piperazine-2-carboxamide] | 1.66
20 | Cc1ccccc1C1C2CC(CO)C(=O)N2CCN1C(=O)N(C)[C@H](C)c1cc(C(F)(F)F)cc(C(F)(F)F)c1 (single isomer, unassigned) [Compound 58] | 11.5
21 | Cc1ccccc1C1C2CC(CO)C(=O)N2CCN1C(=O)N(C)Cc1cc(C(F)(F)F)cc(C(F)(F)F)c1 (single isomer, unassigned) [Compound 19, N-{[3,5-bis(trifluoromethyl)phenyl]methyl}-7-(hydroxymethyl)-N-methyl-1-(2-methylphenyl)-6-oxo-octahydropyrrolo[1,2-a]piperazine-2-carboxamide] | 3.72
22 | COC(=O)C1(C)CC2C(c3ccccc3C)N(C(=O)N(C)Cc3cc(C(F)(F)F)cc(C(F)(F)F)c3)CCN2C1=O (single isomer, unassigned) [Compound 15, Methyl 2-({[3,5-bis(trifluoromethyl)phenyl]methyl}(methyl)carbamoyl)-7-methyl-1-(2-methylphenyl)-6-oxo-octahydropyrrolo{1,2-a}piperazine-7-carboxylate] | 0.1
23 | Cc1ccccc1C1C2CC(CCO)(CCO)CN2CCN1C(=O)N(C)Cc1cc(C(F)(F)F)cc(C(F)(F)F)c1 (single isomer, unassigned) [Compound 65, N-{[3,5-bis(trifluoromethyl)phenyl]methyl}-7,7-bis(2-hydroxyethyl)-N-methyl-1-(2-methylphenyl)-octahydropyrrolo[1,2-a]piperazine-2-carboxamide] | 30.2
